This is an account of results in patent US20190290576A1, “ANTI-MALARIAL PHARMACEUTICAL COMPOSITION” (Protopharma Limited, priority 2007, published 2019).

A short description of data set [1]: Storage stability of artemether in solvent systems, impurities by HPLC. It is filed as physicochemical. The settings on record: in contact with water, ethanol, or propellants. From the text:
Tables 1 and 2 show impurities present in Artemether API, and artemether in three solvent systems: 20% ethanol+80% propellant; 50% ethanol+50% propellant; 100% ethanol; and a medium chain triglyceride, in this case, the triglyceride sold under the registered trade mark Miglyol® 810. Miglyol® is a medium chain triglyceride containing saturated C8 and C10 fatty acids, typically between 65-80% of caprylic acid (C8:0) and 20-35% of capric acid (C10:0). The propellant used in these test was 1,1,1,2 tetrafluoroethane, sold under the registered trade mark Zephex® 134a. Similar results were obtained for the propellants butane, Zephex® 227 (1,1,1,2,3,3,3 heptafluoropropane) and for a mixture of butane and propane. […] In all other cases, the impurities are at levels that exceed those permitted under the ICH Harmonised Tripartite Guidelines for Impurities in New Drug Products without specific identification or further toxicological examination.

For data set [2] the following is noted: animals, oral administration; cited from earlier work.

Structures are written as SMILES.

As for `CO[C@H]1O[C@@H]2O[C@@]3(C)CC[C@H]4[C@H](C)CC[C@@H]([C@H]1C)[C@@]24OO3` [artemether], the “Stability of artemether in contact with solvents” value in data set [1] is “not stable”. The bioavailability in data set [2] is 19-35%.
